What all share (assay type): in vivo
In assay [1] the test system is prickly sida (Sida spinosa L.) (PS). Description: Preemergence herbicide test, soil drench, prickly sida. Conditions: Sida spinosa, 336 h, 10 lbs/A (11.2 kg/ha) soil drench, two weeks after treatment, vs untreated checks, read-out: Percent Weed Control PS.
Assay [2] deals with tall morningglory (Ipomoea purpurea (L.) Roth) (TM). As to the kind of experiment: Preemergence herbicide test, soil drench, tall morningglory. The conditions noted are these: Ipomoea, 336 h, 10 lbs/A (11.2 kg/ha) soil drench, two weeks after treatment, vs untreated checks, read-out: Percent Weed Control TM. Put shortly: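 Acetone/emulsifier formulation diluted to 250 ppm and drenched onto soil surface of seeded pots at 10 lb/acre (11.2 kg/ha), preemergence. Percent weed control versus untreated checks scored two weeks after treatment.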

The subject of assay [3] is switchgrass (Panicum virgahim L.) (SG). Description: Preemergence herbicide test, soil drench, switchgrass. The conditions noted are these: Panicum, 336 h, 10 lbs/A (11.2 kg/ha) soil drench, two weeks after treatment, vs untreated checks, read-out: Percent Weed Control SG. Put shortly: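 Preemergence soil drench at 10 pounds/acre (11.2 kg/ha), 46 mL of 250 ppm aqueous solution (acetone, ethoxylated sorbitan monolaurate) applied to pots sown with switchgrass seed. Percent weed control versus untreated checks scored two weeks after treatment.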

For assay [4], the system named is green foxtail (Setaria virdis (L.) Beauv.) (GF). Description: Preemergence herbicide test, soil drench, green foxtail. Conditions: Setaria, 336 h, 10 lbs/A (11.2 kg/ha) soil drench, two weeks after treatment, vs untreated checks, read-out: Percent Weed Control GF. Put shortly: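 Compound in acetone/water with ethoxylated sorbitan monolaurate emulsifier, applied as 250 ppm soil drench at 10 lb/acre (11.2 kg/ha) to pots sown with green foxtail seed. Percent weed control versus untreated checks rated two weeks after treatment.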

Assay [5] relates to tall morningglory (Ipomoea purpurea (L.) Roth) (TM). As to the kind of experiment: Postemergence herbicide test, foliar spray, tall morningglory. Conditions: 3000 ppm foliar spray to drip point, treated six days after emergence, two weeks after treatment. How it is done: (§1) To illustrate the effectiveness of the previously described substituted oxadiazines of this invention as preemergence herbicides, 300 mg of the chemical was dissolved in a composition comprising 10 mL acetone to which 30 mg of tile emulsifying agent, ethoxylated sorbitan monolaurate, was added. The solution was diluted to 100 mL with distilled water. Ten milliliters of this 3000 ppm solution was diluted to 250 ppm with distilled water. The chemical was applied at the rate of 10 pounds/acre (11.2 kg/ha) by drenchings 46 mL of the 250 ppm solution on the surface of soil in 4½ inch (11.25 cm) plastic pots wherein seeds of the following weeds had been planted: tall morningglory (Ipomoea purpurea (L.) Roth) (TM), To illustrate the effectiveness of the described substituted oxadiazines as postemergence herbicides, the 3000 ppm solution described under Example 5 was atomized with a conventional DeVilbiss™ sprayer, wetting the foliage to the drip point. The weeds, which were the same species as described in Example 5, were treated six days after emergence. The percent weed control was evaluated two weeks after treatment.

The test system of assay [6] is green foxtail (Setaria virdis (L.) Beauv.) (GF). Description: Postemergence herbicide test, foliar spray, green foxtail. Conditions: 3000 ppm foliar spray to drip point, treated six days after emergence, two weeks after treatment. The procedure:
as §1, with “41⁄2” for “4½”, “green foxtail (Setaria […].) Beauv.) (GF).” for “tall morningglory (Ipomoea purpurea (L.) Roth) (TM),”, “DeVilbissTM” for “DeVilbiss™”

As to `FC(F)(F)C1=NC(C(F)(F)F)(C(F)(F)F)N=C(c2cccc(Cl)c2)O1` [Compound 4, 2-(3-chlorophenyl)-4,4,6-tris(trifluoromethyl)-4H-1,3,5-oxadiazine], the pest or weed control at 11208.5 g/ha in assay [1], in assay [2], in assay [3] and in assay [4] was 100% in each case. The “Percent Weed Control TM” value in assay [5] is on record as 100%. For the same compound, in assay [6], the “Percent Weed Control GF” value is listed as 100%.
Take `FC(F)(F)C(F)(F)C1=NC(C(F)(F)F)(C(F)(F)F)N=C(c2cccc(Cl)c2)O1` [Compound 13, 2-(3-chlorophenyl)-6-(pentafluoroethyl)-4,4-bis(trifluoromethyl)-4H-1,3,5-oxadiazine]: the pest or weed control at 11208.5 g/ha in assay [1], in assay [2], in assay [3] and in assay [4] was 100% throughout. Also, in assay [5], the “Percent Weed Control TM” value stood at 100%. In addition, in assay [6], the “Percent Weed Control GF” value stood at 100%.
Turning to `Fc1ccc(C2=NC(C(F)(F)F)(C(F)(F)F)N=C(C(F)(F)C(F)(F)F)O2)cc1Cl` [Compound 20, 2-(3-chloro-4-fluorophenyl)-6-(pentafluoroethyl)-4,4-bis(trifluoromethyl)-4H-1,3,5-oxadiazine], the pest or weed control at 11208.5 g/ha in assay [1], in assay [2], in assay [3] and in assay [4] was 100% throughout. Further, the “Percent Weed Control TM” value in assay [5] is listed as 0%. Moreover, the “Percent Weed Control GF” value in assay [6] is listed as 0%.
As to `FC(F)(F)C(F)(F)C1=NC(C(F)(F)F)(C(F)(F)F)N=C(c2ccc(Cl)cc2)O1` [Compound 24, 2-(4-chlorophenyl)-6-(pentafluoroethyl)-4,4-bis(trifluoromethyl)-4H-1,3,5-oxadiazine], the pest or weed control at 11208.5 g/ha in assay [1], in assay [2], in assay [3] and in assay [4] was 100% in each case. Also, the “Percent Weed Control TM” value in assay [5] came out at 0%. For the same compound, the “Percent Weed Control GF” value in assay [6] is 0%.
For `FC(F)(F)C(F)(F)C1=NC(C(F)(F)F)(C(F)(F)F)N=C(c2ccc(Br)cc2)O1` [Compound 25, 2-(4-bromophenyl)-6-(pentafluoroethyl)-4,4-bis(trifluoromethyl)-4H-1,3,5-oxadiazine], the pest or weed control at 11208.5 g/ha in assay [1], in assay [2], in assay [3] and in assay [4] was 100% throughout. Further, the “Percent Weed Control TM” value in assay [5] is on record as 20%. The “Percent Weed Control GF” value in assay [6] stood at 30%.

These data come from patent publication US6514911B1, “Substituted oxadiazines useful as pesticides” (Uniroyal Chemical Company, Inc., priority 2002, dated 2003).
